The results in this text go back to patent US7494980B2, “Antimicrobial peptide and methods of use thereof” (The United States of America as represented by the …, priority 2003, dated 2009).

Ends that are not written are not given here.

In assay [1] the test system is S. mutans ATCC 25175. The assay is described as follows: In vitro susceptibility (broth microdilution MIC, MBC by spiral-plating). It counts as cell-based, Streptococcus mutans. The text has this:
(§1) Strains used in Examples 3-6 included ATCC and laboratory strains of different oral bacteria. These included: Actinomyces naeslundii strain T14V-J1, Actinomyces israelii ATCC 10049, Streptococcus mutans strains LT 11 and ATCC 25175, Streptococcus sobrinus ATCC 33478, Streptococcus gordonii strains DL1 and ATCC 51656, Streptococcus sanguis strains SK36 and ATCC 10556, Streptococcus salivarius ATCC 9222, Streptococcus oralis strains 34 and ATCC 35037, Lactobacillus salivarius ATCC 29602, Lactobacillus acidophilus ATCC 4357, and Actinobacillus actinomycetemcomitans ATCC 43718. S. mutans strain LT 11 was kindly provided by Lin Tao, University of Illinois at Chicago, Ill. S. gordonii DLI, S. sanguis SK36, and S. oralis 34 were provided by John Cisar, National Institute of Dental and Craniofacial Research, NIH, Bethesda, Md.
(§2) Todd-Hewitt broth (THB), brain heart infusion (BHI) broth, Todd-Hewitt agar (THA), trypticase soy agar (TSA), lactobacilli MRS (MRS) broth, Actinomyces broth and Mueller-Hinton broth (MHB) were purchased from Becton Dickinson. Blood agar plates (BAP) were prepared by supplementing TSA with 5% sheep blood (PML Microbiologicals). All cultures, except for Actinobacillus actinomycetemcomitans, S. mitis and Actinomyces israelii, were grown at 37° C. in room air. Actinobacillus actinomycetemcomitans cultures were grown on BAP or in MHB supplemented with 15 μg haemin ml^−1 (Sigma), 15 μg β-nicotinamide adenine dinucleotide (NAD) ml^−1 (Sigma) and 5% yeast extract (Becton Dickinson) at 37° C. in 5% CO2. S. mitis was grown on BAP or in BHI broth at 37° C. in 5% CO2. […]
(§3) MICs were determined as described by Fuchs et al. (1998) with a slight modification. […] The MIC was defined as the lowest concentration of the peptide that prevented visible turbidity, as measured at 600 nm by using an ELISA reader (Titertek Multiskan MCC/340). […] Minimum bactericidal concentrations (MBCs) were determined by spiral-plating (Spiral Plater Autoplate 4000; Spiral Biotech) 50 μl from each clear well (≧MIC) onto BAP.
(Broth dilution looks for growth in wells or tubes with falling amounts of substance.)

A further assay concerns S. sobrinus ATCC 33478. The assay is described as above. The assay is classed as cell-based, Streptococcus sobrinus.
Excerpt: as §1, §2, §3

Assay [2] has as its system Actinobacillus actinomycetemcomitans ATCC 43718. The assay is described as above. It counts as cell-based. Particulars: 4 × 10^7 cells ml^−1, 24-48 h.
Excerpt: as §1, with “Md. […]” for “Md.”
as §3

Assay [3] relates to S. mutans ATCC 25175. Nature of the assay: Bactericidal assay (log reduction in viable counts). The assay is classed as cell-based, Streptococcus mutans.
Excerpt: as §1
The bactericidal assay was performed according to procedures described by Miyasaki et al. (1997, 1998) with a slight modification. […] Susceptibility was determined by examining the log reduction in viability counts of organisms that had been exposed to different concentrations of KSL. […] Bactericidal activity was also expressed as the 99% effective dose (ED99), which is the concentration of the antimicrobial decapeptide at which there is a 2-log or more reduction in c.f.u. […]
In addition to the determinations of MICs and MBCs of KSL, log reductions in viable counts of selected oral bacteria caused by KSL were also determined. […] With the exception of Actinobacillus actinomycetemcomitans, for which the assays were performed in 0.01% BHI, bactericidal action of KSL was determined in isotonic HBSS after incubation with the targeted bacteria for 1 h at 37° C. KSL at 6.25 μg ml^−1, which was determined to be the 99% effective dose (ED99), caused more than 2 log reductions in viable counts of the organisms tested, which included L. salivarius ATCC 29602 (FIG. 3a), S. mutans ATCC 25175^T (FIG. 3b), S. gordonii ATCC 51656 (FIG. 3c), and Actinobacillus actinomycetemcomitans ATCC 43718 (FIG. 3d).

Where [4] appears, read: MHB, 4 × 10^6 cells ml^−1, 37° C., 24-48 h.
[5] abbreviates: clear MIC wells plated on BAP, 24-48 h.

As to “KKVVFKVKFK-NH2 [KSL, lys-lys-val-val-phe-lys-val-lys-phe-lys]”, the “concentration inhibiting growth effectively” value with S. mutans ATCC 25175 [1] and in the assay with S. sobrinus ATCC 33478 was below 25 µg/mL each time. The MIC with S. mutans ATCC 25175 [1] (setting [4]) came to 6.25 µg/mL; against S. sobrinus ATCC 33478 (setting [4]) it was 25 µg/mL; in assay [2] (50% BHI, 5% CO2, 37° C.) it was 100 µg/mL. Also, the minimal bactericidal concentration (MBC) is 12.5 µg/mL with S. mutans ATCC 25175 [1] (setting [5]), 50 µg/mL in the assay with S. sobrinus ATCC 33478 (setting [5]) and 200 µg/mL in assay [2] (clear MIC wells plated on BAP). In the assay on S. mutans ATCC 25175 [3] (6.25 μg ml^−1, HBSS, FIG. 3b), the “log reduction in viable counts” value is listed as “more than 2 log”. Moreover, in the assay on S. mutans ATCC 25175 [3] (concentrations of <10 μg ml^−1), the reduction in viability is above 3 logs. The “ED99 (99% effective dose)” value with S. mutans ATCC 25175 [3] (isotonic HBSS, 1 h at 37° C.) turned out to be 6.25 µg/mL.

As a reminder, the MIC is the lowest concentration found to suppress growth. Low values mean a more susceptible organism, high ones a less susceptible organism. As usually defined, the MBC is the lowest tested concentration that kills the bacteria rather than only halting them. Low values mean more potent killing, high ones less potent killing.
